The numbers were not newly measured in patent publication US20060030547A1, “Antineoplastic combinations” (Wyeth, priority 2001, published 2006), which cites them from elsewhere.

In series [1] the test system is human glioblastoma cell line. Conditions: in vitro, background statement.
A further series deals with orthotopic glioma. To be noted: nude mice, background statement.
The subject of series [2] is histologically diverse tumor cells. Conditions: in vitro, background statement.

Regarding `CO[C@H]1C[C@@H]2CC[C@@H](C)[C@@](O)(O2)C(=O)C(=O)N2CCCC[C@H]2C(=O)O[C@H]([C@H](C)C[C@@H]2CC[C@@H](OC(=O)C(C)(CO)CO)[C@H](OC)C2)CC(=O)[C@H](C)/C=C(\C)[C@@H](O)[C@@H](OC)C(=O)[C@H](C)C[C@H](C)/C=C/C=C/C=C/1C` [CCI-779, Rapamycin 42-ester with 3-hydroxy-2-(hydroxymethyl)-2-methylpropionic acid], in series [1], the “suppression of growth factor (platelet-derived)-induced stimulation” value is on record as “markedly suppressed”. The “activity in orthotopic glioma model” value in the series with orthotopic glioma was “active”. Also, the cell cycle effect result in series [2] was “arrested cells in the G1 phase of the cell cycle”.
